Experiments:
Details in all cases: Compound concentration 10 µM
[1] = molecular target: Translocator protein (Homo sapiens) (UniProt P30536)
[2] = molecular target: 5-hydroxytryptamine receptor 1E (Homo sapiens) (UniProt P28566)
[3] = molecular target: Beta-3 adrenergic receptor (Homo sapiens) (UniProt P13945)
[4] = molecular target: T1, 5-hydroxytryptamine receptor 3A (Homo sapiens) (UniProt P46098)
T1 sequence (whole entry): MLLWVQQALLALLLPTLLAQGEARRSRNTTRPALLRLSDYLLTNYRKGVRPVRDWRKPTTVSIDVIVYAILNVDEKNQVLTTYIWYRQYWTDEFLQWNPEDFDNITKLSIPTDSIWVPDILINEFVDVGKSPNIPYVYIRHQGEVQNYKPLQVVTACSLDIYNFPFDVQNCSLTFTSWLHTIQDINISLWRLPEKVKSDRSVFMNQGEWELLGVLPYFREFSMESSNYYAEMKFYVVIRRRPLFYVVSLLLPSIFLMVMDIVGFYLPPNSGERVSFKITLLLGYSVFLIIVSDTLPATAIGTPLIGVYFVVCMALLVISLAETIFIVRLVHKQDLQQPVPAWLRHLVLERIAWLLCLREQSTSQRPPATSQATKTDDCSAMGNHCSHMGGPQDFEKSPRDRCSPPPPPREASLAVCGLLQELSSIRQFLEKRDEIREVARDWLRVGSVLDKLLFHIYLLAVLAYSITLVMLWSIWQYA

[5] = molecular target: D(3) dopamine receptor (Homo sapiens) (UniProt P35462)
Sequence of D(3) dopamine receptor (Homo sapiens) (P35462 whole entry): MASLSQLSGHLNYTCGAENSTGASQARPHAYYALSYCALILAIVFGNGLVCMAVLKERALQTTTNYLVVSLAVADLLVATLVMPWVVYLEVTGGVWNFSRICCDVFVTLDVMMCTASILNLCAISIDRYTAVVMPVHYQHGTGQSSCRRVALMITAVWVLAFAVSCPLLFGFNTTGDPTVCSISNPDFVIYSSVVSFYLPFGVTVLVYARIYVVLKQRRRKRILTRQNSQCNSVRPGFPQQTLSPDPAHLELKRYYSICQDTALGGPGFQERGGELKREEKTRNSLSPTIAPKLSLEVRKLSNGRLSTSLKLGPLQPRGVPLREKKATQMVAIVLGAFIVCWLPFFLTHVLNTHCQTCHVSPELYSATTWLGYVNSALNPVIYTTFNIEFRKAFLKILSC

[6] = molecular target: 5-hydroxytryptamine receptor 2A (Homo sapiens) (UniProt P28223)
Sequence of 5-hydroxytryptamine receptor 2A (Homo sapiens) (P28223 whole entry): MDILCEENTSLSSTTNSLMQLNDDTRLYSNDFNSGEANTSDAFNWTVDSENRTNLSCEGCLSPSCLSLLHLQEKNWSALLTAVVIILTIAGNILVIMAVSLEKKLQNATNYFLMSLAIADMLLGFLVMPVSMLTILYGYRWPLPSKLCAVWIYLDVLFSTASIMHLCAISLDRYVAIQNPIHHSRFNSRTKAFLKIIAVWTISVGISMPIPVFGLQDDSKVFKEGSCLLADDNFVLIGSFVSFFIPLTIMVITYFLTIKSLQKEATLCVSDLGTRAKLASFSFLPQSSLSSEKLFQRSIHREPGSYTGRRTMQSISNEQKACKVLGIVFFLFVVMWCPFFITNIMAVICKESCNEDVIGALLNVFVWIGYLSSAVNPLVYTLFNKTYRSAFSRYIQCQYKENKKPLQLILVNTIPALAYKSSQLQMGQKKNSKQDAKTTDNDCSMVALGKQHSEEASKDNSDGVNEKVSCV

[7] = molecular target: Histamine H2 receptor (Homo sapiens) (UniProt P25021)
Sequence of Histamine H2 receptor (Homo sapiens) (P25021 whole entry): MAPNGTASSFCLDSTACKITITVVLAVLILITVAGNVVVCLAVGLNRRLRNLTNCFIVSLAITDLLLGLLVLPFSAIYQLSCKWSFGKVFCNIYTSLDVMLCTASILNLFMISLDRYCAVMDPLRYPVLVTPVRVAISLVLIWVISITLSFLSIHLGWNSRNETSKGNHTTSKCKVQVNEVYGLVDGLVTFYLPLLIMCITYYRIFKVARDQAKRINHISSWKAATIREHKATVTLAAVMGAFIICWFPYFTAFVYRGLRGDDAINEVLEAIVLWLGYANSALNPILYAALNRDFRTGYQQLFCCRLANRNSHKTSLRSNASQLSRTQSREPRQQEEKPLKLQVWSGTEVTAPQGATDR

[8] = molecular target: Beta-2 adrenergic receptor (Homo sapiens) (UniProt P07550)
Sequence of Beta-2 adrenergic receptor (Homo sapiens) (P07550 whole entry, looked up): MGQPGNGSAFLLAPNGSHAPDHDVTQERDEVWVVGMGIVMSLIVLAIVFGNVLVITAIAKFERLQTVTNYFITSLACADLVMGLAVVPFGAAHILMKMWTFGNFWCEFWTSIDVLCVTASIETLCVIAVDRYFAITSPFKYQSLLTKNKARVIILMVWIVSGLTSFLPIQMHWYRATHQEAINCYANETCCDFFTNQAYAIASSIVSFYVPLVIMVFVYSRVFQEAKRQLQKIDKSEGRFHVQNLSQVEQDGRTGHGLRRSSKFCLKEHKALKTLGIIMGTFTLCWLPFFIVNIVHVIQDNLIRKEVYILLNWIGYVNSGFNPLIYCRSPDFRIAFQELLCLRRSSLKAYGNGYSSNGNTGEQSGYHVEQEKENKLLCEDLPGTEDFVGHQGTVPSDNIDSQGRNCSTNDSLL

[9] = molecular target: T2, 5-hydroxytryptamine receptor 2C (Homo sapiens) (UniProt P28335)
T2 sequence (whole entry): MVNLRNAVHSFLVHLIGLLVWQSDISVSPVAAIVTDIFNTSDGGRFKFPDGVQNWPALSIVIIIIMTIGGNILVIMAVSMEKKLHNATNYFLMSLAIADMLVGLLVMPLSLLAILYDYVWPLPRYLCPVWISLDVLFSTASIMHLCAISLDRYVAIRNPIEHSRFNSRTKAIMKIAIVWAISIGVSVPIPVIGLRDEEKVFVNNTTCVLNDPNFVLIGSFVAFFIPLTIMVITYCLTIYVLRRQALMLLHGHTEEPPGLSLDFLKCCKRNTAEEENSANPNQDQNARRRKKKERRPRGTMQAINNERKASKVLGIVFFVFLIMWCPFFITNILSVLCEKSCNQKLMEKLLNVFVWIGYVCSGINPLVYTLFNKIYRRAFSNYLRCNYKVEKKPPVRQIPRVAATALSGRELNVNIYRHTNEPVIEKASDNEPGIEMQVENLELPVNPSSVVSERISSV

[10] = molecular target: Histamine H1 receptor (Homo sapiens) (UniProt P35367)
[11] = molecular target: 5-hydroxytryptamine receptor 7 (Homo sapiens) (UniProt P34969)
[12] = molecular target: 5-hydroxytryptamine receptor 1B (Homo sapiens) (UniProt P28222)
[13] = molecular target: 5-hydroxytryptamine receptor 1D (Homo sapiens) (UniProt P28221)
Sequence of 5-hydroxytryptamine receptor 1D (Homo sapiens) (P28221 whole entry): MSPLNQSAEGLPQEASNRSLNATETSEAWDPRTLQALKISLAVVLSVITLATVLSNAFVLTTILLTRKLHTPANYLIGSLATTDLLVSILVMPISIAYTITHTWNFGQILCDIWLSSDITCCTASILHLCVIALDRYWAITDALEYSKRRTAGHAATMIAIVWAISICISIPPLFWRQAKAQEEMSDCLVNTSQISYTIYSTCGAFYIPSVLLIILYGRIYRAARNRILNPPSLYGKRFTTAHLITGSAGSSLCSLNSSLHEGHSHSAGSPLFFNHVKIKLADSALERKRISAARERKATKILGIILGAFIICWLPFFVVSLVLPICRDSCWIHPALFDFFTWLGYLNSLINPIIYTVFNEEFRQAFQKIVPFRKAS

[14] = molecular target: Sodium-dependent dopamine transporter (Homo sapiens) (UniProt Q01959)
Sequence of Sodium-dependent dopamine transporter (Homo sapiens) (Q01959 whole entry): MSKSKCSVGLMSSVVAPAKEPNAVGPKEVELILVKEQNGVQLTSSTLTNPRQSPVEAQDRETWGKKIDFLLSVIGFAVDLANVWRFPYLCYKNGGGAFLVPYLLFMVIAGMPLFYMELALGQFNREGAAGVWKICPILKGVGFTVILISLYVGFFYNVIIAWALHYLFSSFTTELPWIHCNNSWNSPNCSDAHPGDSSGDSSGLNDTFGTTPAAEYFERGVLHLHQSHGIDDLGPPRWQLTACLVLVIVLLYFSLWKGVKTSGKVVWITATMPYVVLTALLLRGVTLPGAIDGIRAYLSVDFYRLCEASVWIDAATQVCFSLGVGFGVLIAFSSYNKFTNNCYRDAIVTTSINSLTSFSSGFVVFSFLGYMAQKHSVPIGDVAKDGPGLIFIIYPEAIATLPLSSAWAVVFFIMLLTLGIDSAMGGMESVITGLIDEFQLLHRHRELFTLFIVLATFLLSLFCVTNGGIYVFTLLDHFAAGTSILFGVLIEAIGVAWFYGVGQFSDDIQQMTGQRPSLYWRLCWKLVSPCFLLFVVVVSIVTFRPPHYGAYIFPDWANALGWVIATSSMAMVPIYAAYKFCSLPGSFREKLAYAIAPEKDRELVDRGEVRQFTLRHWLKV

[15] = molecular target: Sodium-dependent noradrenaline transporter (Homo sapiens) (UniProt P23975)
Sequence of Sodium-dependent noradrenaline transporter (Homo sapiens) (P23975 whole entry): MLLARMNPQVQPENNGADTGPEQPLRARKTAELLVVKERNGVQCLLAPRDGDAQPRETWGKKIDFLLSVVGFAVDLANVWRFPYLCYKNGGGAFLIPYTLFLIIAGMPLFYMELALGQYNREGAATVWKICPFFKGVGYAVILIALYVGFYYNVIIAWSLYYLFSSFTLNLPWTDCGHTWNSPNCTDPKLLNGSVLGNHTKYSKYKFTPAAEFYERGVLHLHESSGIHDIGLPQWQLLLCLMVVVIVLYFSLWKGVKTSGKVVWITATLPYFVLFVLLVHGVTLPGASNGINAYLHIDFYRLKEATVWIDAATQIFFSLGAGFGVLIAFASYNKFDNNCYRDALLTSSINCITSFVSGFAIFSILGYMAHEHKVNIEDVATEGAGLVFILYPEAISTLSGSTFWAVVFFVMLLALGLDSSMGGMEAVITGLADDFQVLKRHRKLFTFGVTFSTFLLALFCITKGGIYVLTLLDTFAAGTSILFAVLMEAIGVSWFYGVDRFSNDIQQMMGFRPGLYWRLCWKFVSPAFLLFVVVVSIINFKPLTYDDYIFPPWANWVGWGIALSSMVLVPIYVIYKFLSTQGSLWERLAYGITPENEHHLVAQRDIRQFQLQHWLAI

[16] = molecular target: Histamine H4 receptor (Homo sapiens) (UniProt Q9H3N8)
Sequence of Histamine H4 receptor (Homo sapiens) (Q9H3N8 whole entry): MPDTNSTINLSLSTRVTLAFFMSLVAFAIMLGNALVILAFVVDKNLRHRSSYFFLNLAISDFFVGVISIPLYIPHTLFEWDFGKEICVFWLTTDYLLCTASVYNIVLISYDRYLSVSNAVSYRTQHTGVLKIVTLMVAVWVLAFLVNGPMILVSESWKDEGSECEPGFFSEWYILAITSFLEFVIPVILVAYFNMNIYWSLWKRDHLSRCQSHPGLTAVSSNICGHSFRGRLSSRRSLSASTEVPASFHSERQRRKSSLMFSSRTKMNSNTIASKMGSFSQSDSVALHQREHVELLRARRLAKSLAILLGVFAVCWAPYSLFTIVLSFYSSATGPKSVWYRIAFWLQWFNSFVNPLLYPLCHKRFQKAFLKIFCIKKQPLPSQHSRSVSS

[17] = molecular target: T3, Alpha-2C adrenergic receptor (Homo sapiens) (UniProt P18825)
T3 sequence (whole entry): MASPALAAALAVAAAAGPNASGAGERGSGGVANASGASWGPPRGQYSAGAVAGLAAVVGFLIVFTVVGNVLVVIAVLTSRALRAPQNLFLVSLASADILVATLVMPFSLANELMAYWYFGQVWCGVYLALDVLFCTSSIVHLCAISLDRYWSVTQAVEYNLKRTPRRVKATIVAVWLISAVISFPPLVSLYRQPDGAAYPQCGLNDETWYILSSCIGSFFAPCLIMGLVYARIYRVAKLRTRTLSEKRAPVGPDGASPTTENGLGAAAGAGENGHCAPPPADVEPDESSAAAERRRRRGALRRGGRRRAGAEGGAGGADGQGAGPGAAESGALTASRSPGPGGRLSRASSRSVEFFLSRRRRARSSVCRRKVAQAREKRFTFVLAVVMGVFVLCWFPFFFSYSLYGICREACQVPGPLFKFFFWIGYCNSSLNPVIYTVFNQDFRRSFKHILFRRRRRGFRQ

[18] = molecular target: Kappa-type opioid receptor (Homo sapiens) (UniProt P41145)
[19] = molecular target: T4, Alpha-2A adrenergic receptor (Homo sapiens) (UniProt P08913)
T4 sequence (whole entry): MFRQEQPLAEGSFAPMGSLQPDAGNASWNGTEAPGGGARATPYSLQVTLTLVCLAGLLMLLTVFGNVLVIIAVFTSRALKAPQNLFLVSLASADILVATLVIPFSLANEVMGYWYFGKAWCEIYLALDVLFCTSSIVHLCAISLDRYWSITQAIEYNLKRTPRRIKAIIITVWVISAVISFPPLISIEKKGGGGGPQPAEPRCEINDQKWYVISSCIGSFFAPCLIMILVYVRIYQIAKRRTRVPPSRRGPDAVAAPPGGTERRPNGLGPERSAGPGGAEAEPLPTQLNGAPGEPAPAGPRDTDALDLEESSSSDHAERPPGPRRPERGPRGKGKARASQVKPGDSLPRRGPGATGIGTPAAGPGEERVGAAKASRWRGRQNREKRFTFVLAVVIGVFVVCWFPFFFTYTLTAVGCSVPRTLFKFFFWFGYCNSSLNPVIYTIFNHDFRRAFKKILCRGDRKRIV

[20] = molecular target: 5-hydroxytryptamine receptor 5A (Homo sapiens) (UniProt P47898)
Sequence of 5-hydroxytryptamine receptor 5A (Homo sapiens) (P47898 whole entry): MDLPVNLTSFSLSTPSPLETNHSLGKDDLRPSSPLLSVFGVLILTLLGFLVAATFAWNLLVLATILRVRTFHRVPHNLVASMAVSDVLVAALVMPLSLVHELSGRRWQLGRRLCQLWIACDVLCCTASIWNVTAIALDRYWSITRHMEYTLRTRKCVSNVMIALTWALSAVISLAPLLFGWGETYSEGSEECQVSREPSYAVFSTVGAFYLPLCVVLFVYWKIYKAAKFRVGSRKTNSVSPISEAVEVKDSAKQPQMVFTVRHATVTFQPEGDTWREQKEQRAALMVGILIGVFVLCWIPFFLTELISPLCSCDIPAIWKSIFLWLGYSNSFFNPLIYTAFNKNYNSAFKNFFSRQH

Sequence of 5-hydroxytryptamine receptor 1E (Homo sapiens) (P28566 whole entry): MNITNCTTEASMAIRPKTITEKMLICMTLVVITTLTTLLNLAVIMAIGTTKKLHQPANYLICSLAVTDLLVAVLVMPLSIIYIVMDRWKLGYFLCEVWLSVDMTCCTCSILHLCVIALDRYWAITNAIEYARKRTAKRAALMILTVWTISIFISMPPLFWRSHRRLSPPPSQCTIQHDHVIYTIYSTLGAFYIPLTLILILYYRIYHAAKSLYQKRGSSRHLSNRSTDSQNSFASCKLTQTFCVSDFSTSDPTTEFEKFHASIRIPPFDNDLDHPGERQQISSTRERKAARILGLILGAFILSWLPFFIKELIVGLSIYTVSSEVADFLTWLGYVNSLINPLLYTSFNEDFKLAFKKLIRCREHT
Sequence of Translocator protein (Homo sapiens) (P30536 whole entry): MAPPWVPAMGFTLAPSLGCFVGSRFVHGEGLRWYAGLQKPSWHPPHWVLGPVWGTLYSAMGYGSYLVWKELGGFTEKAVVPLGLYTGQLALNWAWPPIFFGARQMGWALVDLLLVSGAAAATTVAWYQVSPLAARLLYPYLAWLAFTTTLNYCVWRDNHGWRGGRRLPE
Sequence of Beta-3 adrenergic receptor (Homo sapiens) (P13945 whole entry, looked up): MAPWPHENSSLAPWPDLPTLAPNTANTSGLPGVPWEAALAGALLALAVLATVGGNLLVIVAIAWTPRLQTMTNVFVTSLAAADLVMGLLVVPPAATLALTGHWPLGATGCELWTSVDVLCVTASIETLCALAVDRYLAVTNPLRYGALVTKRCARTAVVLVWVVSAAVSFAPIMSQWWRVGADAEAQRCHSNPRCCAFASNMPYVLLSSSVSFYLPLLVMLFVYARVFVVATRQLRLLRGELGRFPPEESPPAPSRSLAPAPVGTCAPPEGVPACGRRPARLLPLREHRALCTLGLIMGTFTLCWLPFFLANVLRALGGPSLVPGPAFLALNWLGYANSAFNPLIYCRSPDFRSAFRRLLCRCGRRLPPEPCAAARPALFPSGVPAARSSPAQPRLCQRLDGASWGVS

SMILES	inhibition [1] [%]	inhibition [2] [%]	inhibition [3] [%]	inhibition [4] [%]	inhibition [5] [%]	inhibition [6] [%]	inhibition [7] [%]	inhibition [8] [%]	inhibition [9] [%]	inhibition [10] [%]	inhibition [11] [%]	inhibition [12] [%]	inhibition [13] [%]	inhibition [14] [%]	inhibition [15] [%]	inhibition [16] [%]	inhibition [17] [%]	inhibition [18] [%]	inhibition [19] [%]	inhibition [20] [%]
CC(C)Oc1ccccc1C(=O)Nc1ccccc1C(=O)Nc1cccc(S(=O)(=O)C(F)(F)F)c1	66.1	-4.72	1.49	-3.89	23.1	87.8	36	-8.68	11.3	2.1	-3.5	–	–	–	–	–	–	–	–	–
N#Cc1ccc(NC(=O)Nc2ccccc2Br)c2nn[nH]c12	53.9	4.87	75	4.92	43.3	-5.61	17.7	-2.94	26.9	0.77	–	1.05	1.14	59.8	35.6	25.3	4.08	25.6	–	–
FC(F)(F)c1cccc(-c2noc(-c3cc(-c4ccccc4)c(C(F)(F)F)s3)n2)c1	5.27	10.4	23.6	0.39	–	-1.97	16.3	–	1.03	17	7.06	1.92	-9.1	17.8	–	–	-0.68	46.5	-2.79	18.8
Cc1cc([C@@H](C)Nc2cccc(-c3cc(C)c(C(=O)N[C@@H](C)C(=O)O)c(C)c3)c2)ccc1Cl	62.7	5.92	70.7	–	58.6	5.15	22.5	–	-0.82	2.32	2.27	12.1	–	56.6	14.9	–	-1.32	0.51	–	11.6
N[C@H](C(=O)O)c1ccc(C(=O)O)c(C(=O)O)c1	13.8	-8.66	18.2	1.09	62.5	5.29	-1.13	6.53	13.4	11.7	–	-2.1	19.2	44	54.5	15	-9.35	4.93	–	-7.78
O=C(O)C1CN(Cc2ccc(-c3nc4cc(Cc5ccccc5F)ccc4s3)c(F)c2)C1	22.3	31.1	-2.08	-3.55	91	9.17	1.06	66.8	35.8	37.5	–	–	–	30.2	20.8	-0.17	20.6	0.93	–	7.19
c1cc(CN2CCCNCCNCCCNCC2)ccc1CN1CCCNCCNCCCNCC1	7.76	33.9	34.5	21.9	37.2	0.83	0.23	-4.45	–	-5.42	–	4.06	1.3	53.6	33.4	11.2	66.3	13.8	7.87	–
Cc1c(F)cccc1NC(=O)Nc1ccc(Cl)c(S(=O)(=O)[C@H]2CCCNC2)c1O	8.9	-6.67	17.8	–	25.8	-0.14	18.3	5.61	-7.64	25.6	-3.91	8.6	-2.39	14.9	–	–	-6.11	-8.19	–	16.5
Cc1cn2cc(CC(=O)N3CCC4(CC3)CN(Cc3ccc(-n5nccn5)cc3Cl)C4)nc2s1	0.99	-2.62	25.6	1.22	71.1	-2.36	60.1	67.1	-3.75	30.4	–	–	4.85	44.2	44.3	-5.48	35.9	35.7	9.33	8.61
CCC[C@H](Oc1cc(C)c(-n2cc(C(F)(F)F)cn2)c(C)c1)c1ccc(C(=O)NCCC(=O)O)cc1	28.7	44	65.4	–	–	4.78	-8.24	–	-0.8	7.56	-2.87	12.2	–	–	–	–	5.06	40.7	–	8.62
O=C(O)C1CN(Cc2ccc(OCc3ccc(Cl)c(Cl)c3)cc2)C1	3.35	-4	-2.67	-8.5	39.5	55.1	29.6	–	–	86	-9.54	–	–	31.9	–	-3.72	10	-7.92	29.7	23.4
